{"source": "patent US20260191815A1", "about": "“THIOACRYLAMIDE DERIVATIVES FOR USE IN THE PREVENTION OR TREATMENT OF LIVER FIBROSIS” (CMR CUREDIAB METABOLIC RESEARCH GMBH, priority 2022, published 2026)", "key": {"[1]": {"tested_on": "pro-collagen 1a1 in 3D PHH:NPC spheroid supernatants", "test": "Pro-collagen 1a1 ELISA in supernatants of 3D PHH:NPC NASH spheroids", "assay_type": "cell-based, human", "conditions": "NASH medium", "description": "Experiments were conducted using HepaPredict's (HepaPredict AB, Sweden) 3D primary human hepatocyte (PHH) spheroid NASH model (e.g. as published in Bell et al. Sci Rep. 2016 May 4; 6:25187. doi: 10.1038/srep25187).\nCryopreserved primary human hepatocytes were obtained from BioIVT (USA) and nonparenchymal cells (NPC) from LifeNetHealth (USA). After thawing, PHH-NPC cocultures were seeded in a multi-well 96-well Elplasia plate (Corning) in William's E medium containing 11 mM glucose, 10 μg/mL (control) or 10 mg/mL insulin (NASH), 100 nM dexamethasone, 5.5 mg/L transferrin, 6.7 μg/L selenite, 2 mM L-glutamine, 1 U/mL penicillin, 0.1 mg/mL streptomycin, and 10% fetal bovine serum (FBS). PHH-NPC cocultures were seeded in ratio of 6:1 PHH:NPC with a total of 40,000 PHH per well. When spheroids were formed, FBS was phased out and spheroids were maintained in either the same media to provide the negative control (“Ctrl”), or with addition of albumin-conjugated free fatty acid (FFA), comprised of 240 μM palmitic acid and 240 μM oleic acid (NASH medium) to provide the positive control (“NASH”). Compound exposure was conducted in NASH medium with medium exchanges every 48-72 hours.\nAfter spheroid formation, cells were exposed to up to five different concentrations of the candidate molecules HK1 or HK3 (0.1 μM, 0.3 μM, 1 μM, 3 μM, and 10 μM) with or without FFA in the culture medium. All compound stocks and dilutions were prepared in DMSO, aliquoted and stored protected from light at −20° C. Fresh dosing solutions were prepared from these aliquots on each dosing day. All endpoints were evaluated after 14 days of exposure. […]\nSupernatant from each well was collected and stored at […]. On the day of the measurement, samples were thawed and fibrosis was evaluated using the Human Pro-collagen 1 alpha 1 DuoSet ELISA (R&D Systems) where pro-collagen 1a1 levels were measured in culture supernatants. […]"}, "[2]": {"tested_on": "CCl4-intoxicated C57BL/6J mice", "test": "CCl4-induced liver fibrosis in mice, oral gavage once daily for 2 weeks", "assay_type": "in vivo, mouse", "description": "C57BL/6J mice were housed in housing cages GM500 (500 cm^3) throughout the experimental phase. Animals' cages litters were changed at least once a week. They were housed in groups of 4 animals on a normal 12-hour light cycle (at 07:30 pm lights off), 22±2° C. and 55±10% relative humidity. Animals were acclimated for 5 days. During the whole phase standard diet (SAFE, Ref.: U8400G10R) and tap water were provided ad libitum.\nAfter the acclimation period, mice were intoxicated with CCl4 i.p. twice weekly for 2 weeks to induce liver fibrosis. Body weight was recorded twice weekly for the 2-week intoxication period. After 2 weeks of CCl4 injection (~72 hours after the 4th injection of CCl4), mice were weighted and bled at ~08:00 am to collect blood (150 μL blood on heparin by retro-orbital bleeding under isoflurane anaesthesia) and measure plasma ALT and AST levels. Mice were then randomized into 2 homogenous groups (n=10/group) based on 1) ALT, 2) AST and 3) body weight.\nMice were treated by oral gavage once daily with vehicle or HK3 for 2 weeks (from day 0 to day 13). During this 2-week treatment period, CCl4 twice weekly i.p. injection was still performed until the end of the in-life phase. Body weight was recorded twice weekly, during the 2-week treatment period.\nAt the end of the treatment period (~48 hours after the last injection of CCl4), all mice were weighed and 3 h-fasted at ~10:00 am. The last dose of vehicle and test compound was administered at ~10:00 am, prior to blood collection (retro-orbital bleeding under isoflurane anesthesia for maximal volume/heparin) at ~1:00 pm. Plasma was isolated and immediately stored at −80° C.\nSubsequently, the liver of each mouse was collected and weighted. Liver samples were dissected from the left lateral lobe for formalin-fixed paraffin-embedded samples for shipment for histology analysis (H&E and Sirius Red staining), % Sirius Red labelling and NAS scoring.\nA total of 50 slides, each having a single hepatic lobe section stained with H&E (25) and Sirius red (25) were digitized using a Nanozoomer from Hamamatsu at Sciempath laboratory and posted on a secured digital slide server. They were downloaded and visualized using NDP viewer. Sections were evaluated with knowledge of groups but without knowledge of treatment. Each section was evaluated and individually scored.\nA NAFLD scoring system (NAS), with which a total of four variables was qualitatively assessed and ranked with a score: (1) hepatocellular steatosis, (2) liver inflammation, (3) lobular fibrosis, and (4) hepatocyte ballooning.\nAn individual mouse NAS total score was calculated for each animal by summing up the score for (1) hepatocellular steatosis, (2) liver inflammation, (3) lobular fibrosis, and (4) hepatocyte ballooning. Whole-section histomorphometric measurements of positive area for Sirius Red were performed using computer-assisted image analysis on digitized sections. The histomorphometric measurements were generated with the software from Visiopharm (Denmark) using an automated approach. Analysis was performed on virtual whole sections at 20× magnification for morphometric evaluation. The pixel value at 20× magnification corresponded to 0.46 μm/pixel.\nAn algorithm was prepared for Sirius Red (SR) morphometric measurement on liver-stained sections. The algorithm was generated with the Bayesian linear segmentation tool in the software package, which was further refined through training on a subset of sections from 5 animals. Major histology section artefacts, as well as, large vascular empty spaces were automatically dissected and removed from area of interest (AOI) or detected positive area. Also, positive collagen from capsule and large vessels media layer was automatically excluded from SR positive area.\nThe total area analysed or AOI (mm2), the total SR positive area (mm2) and the percent “SR” area/total liver area analysed (%) were determined. […]"}, "[3]": {"conditions": "CCl4 mice, oral gavage once daily, 2 weeks"}}}
{"compound": "Cc1cc(NC(=S)/C(C#N)=C(\\O)C2CC2)ccc1[N+](=O)[O-]", "note": "[HK3, 2-Cyano-3-cyclopropyl-3-hydroxy-N-(3-methyl-4-nitro-phenyl)-thioacrylamide]", "values": [{"measurement": "pro-collagen 1a1 levels compared to NASH", "setting": "[1]; 1 μM", "value": 82, "unit": "%"}, {"measurement": "pro-collagen 1a1 levels compared to NASH", "setting": "[1]; 3 μM", "value": 73, "unit": "%"}, {"measurement": "pro-collagen 1a1 levels compared to NASH", "setting": "[1]; 10 μM", "value": 64, "unit": "%"}, {"measurement": "percentage of Sirius Red labelling compared to baseline group", "setting": "[2]; CCl4 mice, liver sections, p<0.01", "value": "significantly increased"}, {"measurement": "percentage of Sirius Red labelling compared to the vehicle group", "setting": "[2]; CCl4 mice, liver sections, p<0.05", "value": "significantly reduced"}, {"measurement": "number of mice with a fibrosis score equal to 2", "setting": "[2]; CCl4 mice, n=10/group", "value": 9, "unit": "mice"}, {"measurement": "number of mice with a fibrosis score equal to 3", "setting": "[2]; CCl4 mice, n=10/group", "value": 1, "unit": "mouse"}, {"measurement": "body weight and body weight gain compared to vehicle treatment", "setting": "[2]; [3]", "value": "not altered"}, {"measurement": "liver weight and relative liver weight compared to vehicle treatment", "setting": "[2]; [3]", "value": "did not change"}, {"measurement": "plasma ALT and AST levels compared to vehicle treatment", "setting": "[2]; [3]", "value": "did not change"}, {"measurement": "fibrosis score, treated group versus vehicle-treated group", "setting": "[2]; CCl4 mice, p<0.05", "value": "significant difference"}, {"measurement": "fibrosis score, treated group versus baseline group", "setting": "[2]; CCl4 mice, baseline = CCl4 for two weeks only", "value": "no significant difference"}, {"measurement": "TNF-α levels in liver homogenates compared to CCl4-treated group", "setting": "[2]; combined administration with CCl4, p<0.05", "value": "slight but significant downregulation"}]}
